Patent US11076595B2, “1-(n,n-disubstituted carbamoyl) 4-(substituted sulfonyl)triazolin-5-one derivative, 4-(n,n-disubstituted carbamoyl) 1-(substituted sulfonyl)triazolin-5-one derivative, and herbicide containing said derivative as active ingredient” (HOKKO CHEMICAL INDUSTRY CO., LTD., priority 2017, dated 2021)

Key:
Type in all cases: in vivo
Echinochloa crus-galli [1] = test: Test Example 1: herbicidal effect test by soil treatment in paddy field; settings: 120 g/10a, paddy soil treatment just after sowing, 14 days after treatment
Source text: (§1) A Wagner pot having an area of 1/10000 are was filled with paddy field soil and after adding water, a chemical fertilizer (N:P:K=17:17:17) was mixed, followed by puddling. Thereafter, 30 grains of each of Echinochloa crus-galli, broad-leaved weed (Lindernia pyxidaria and Monochoria vaginalis) and Scirpus juncoides seeds were sown to a depth of 0 to 1 cm. Immediately after the sowing, the pot was flooded, and the depth of water was kept at about 3 cm. The pot was subsequently managed in a glass greenhouse. Just after that, an emulsifiable concentrate prepared according to Formulation Example 5 by using the compound shown in Table 5 below was diluted with water, and a predetermined amount of the water-diluted formulation was added dropwise. The application rate of the active ingredient, by conversion, corresponded to 120 g per 10 are.
(§2) This test was performed with two replications per one formulation concentration plot, and 14 days after the formulation treatments, the weed suppression rate (%) was determined according to the following equation (Math. 1). Weed suppression rate (%)=(1−an average dry weight (g) of plants in treated plots/an average dry weight (g) of plants in untreated plots)×100 [Math. 1]

Lindernia pyxidaria [2] = test: as above; settings: 120 g/10a, paddy soil treatment just after sowing, 14 days after treatment
Source text: as §1, §2

Monochoria vaginalis [3] = test: as above; settings: 120 g/10a, paddy soil treatment just after sowing, 14 days after treatment
Source text: as §1, §2

Scirpus juncoides [4] = test: as above; settings: 120 g/10a, paddy soil treatment just after sowing, 14 days after treatment
Source text: as §1, §2

Echinochloa crus-galli [5] = test: Test Example 2: herbicidal effect test by treatment during growing period in paddy field; settings: treatment 7 days after sowing, 120 g/10a, evaluated 14 days after treatment
Experimental: as §2
as §1, with “greenhouse. Seven days” for “greenhouse. Just”, “after sowing,” for “after that,”, “Table 6” for “Table 5”, “are. The test was performed with two replications per one formulation concentration plot, and 14 days after the formulation treatments, the weed suppression rate (%) was determined according to the equation (Math. 1).” for “are.”

Lindernia pyxidaria [6] = test: as above; settings: treatment 7 days after sowing, 120 g/10a, evaluated 14 days after treatment
Experimental: as §2
as §1, with “greenhouse. Seven days” for “greenhouse. Just”, “after sowing,” for “after that,”, “Table 6” for “Table 5”, “are. The test was performed with two replications per one formulation concentration plot, and 14 days after the formulation treatments, the weed suppression rate (%) was determined according to the equation (Math. 1).” for “are.”

Monochoria vaginalis [7] = test: as above; settings: treatment 7 days after sowing, 120 g/10a, evaluated 14 days after treatment
Experimental: as §2
as §1, with “greenhouse. Seven days” for “greenhouse. Just”, “after sowing,” for “after that,”, “Table 6” for “Table 5”, “are. The test was performed with two replications per one formulation concentration plot, and 14 days after the formulation treatments, the weed suppression rate (%) was determined according to the equation (Math. 1).” for “are.”

Scirpus juncoides [8] = test: as above; settings: treatment 7 days after sowing, 120 g/10a, evaluated 14 days after treatment
Experimental: as §2
as §1, with “greenhouse. Seven days” for “greenhouse. Just”, “after sowing,” for “after that,”, “Table 6” for “Table 5”, “are. The test was performed with two replications per one formulation concentration plot, and 14 days after the formulation treatments, the weed suppression rate (%) was determined according to the equation (Math. 1).” for “are.”

Row | SMILES | weed suppression rate, Echinochloa crus-galli (Echinochloa crus-galli [1]) | weed suppression rate, Lindemia pyxidaria (Lindernia pyxidaria [2]) | weed suppression rate, Monochoria vaginalis (Monochoria vaginalis [3]) | weed suppression rate, Scirpus juncoides (Scirpus juncoides [4]) | weed suppression rate, Echinochloa crus-galli (Echinochloa crus-galli [5]) | weed suppression rate, Lindemia pyxidaria (Lindernia pyxidaria [6]) | weed suppression rate, Monochoria vaginalis (Monochoria vaginalis [7]) | weed suppression rate, Scirpus juncoides (Scirpus juncoides [8])
1 | Cc1ccc(S(=O)(=O)n2cnn(C(=O)N(c3ccc(Cl)nc3Cl)C(C)C)c2=O)cc1 [Compound 1-690] | 100% | 100% | 90% | 90% | 100% | 90% | 90% | 90%
2 | Cc1cc(C)c(S(=O)(=O)n2cnn(C(=O)N(c3cccnc3F)C(C)C)c2=O)c(C)c1 [Compound 1-921] | 90% | 80% | 60% | 70% | 80% | 80% | 60% | 70%
3 | CC(C)N(C(=O)n1ncn(S(=O)(=O)c2cccs2)c1=O)c1ccc(F)cc1 [Compound 1-1052] | 90% | 80% | 80% | 90% | 90% | 80% | 80% | 90%
4 | CC(C)N(C(=O)n1ncn(S(=O)(=O)N(C)C)c1=O)c1ccccc1F [Compound 1-1093] | 90% | 80% | 80% | 90% | 90% | 80% | 80% | 90%
5 | CC(C)N(C(=O)n1ncn(S(=O)(=O)N(C)C)c1=O)c1cccnc1F [Compound 1-1128] | 90% | 90% | 60% | 70% | 90% | 90% | 60% | 70%
6 | CC(C)N(C(=O)n1ncn(S(=O)(=O)N(C)C)c1=O)c1ccc(F)nc1 [Compound 1-1129] | 90% | 80% | 80% | 90% | 90% | 80% | 80% | 90%
7 | CC(C)N(C(=O)n1ncn(S(=O)(=O)N(C)C)c1=O)c1ccc(Cl)nc1 [Compound 1-1135] | 90% | 90% | 60% | 90% | 90% | 60% | 70% | 90%
